US20030166645A1, “Novel nitrofuran-containing heterocyclic compounds and uses thereof” (priority 2001, published 2003)
Values after ≈ are worked out from the molar mass of the structure shown. Read-outs that look alike come from different tables or passages of the source.

Key:
[1] = test system: E coli; assay: Microdilution antimicrobial susceptibility test (MIC); type: cell-based; conditions: broth microdilution, 18-24 h, MIC = 90% inhibition of growth; read-out: MIC E coli MIC2
[2] = test system: Bacteroides thetaiotaomicron; type: cell-based; conditions: agar dilution, anaerobic, 48 h
[3] = test system: S. aureus; assay: Systemic bacterial infection model, mice infected with S. aureus
[4] = test system: H influenzae; assay: Microdilution antimicrobial susceptibility test (MIC); type: cell-based; conditions: broth microdilution, 18-24 h, MIC = 90% inhibition of growth; read-out: MIC H influenzae MIC4
[5] = test system: Bacteroides fragilis; type: cell-based; conditions: Bacteroides fragilis; disk 200 μg; anaerobic, 24-48 h
[6] = test system: Bacteroides vulgatus; assay: Antimicrobial agar dilution test of anaerobic bacteria (MIC); type: cell-based; conditions: 48 h
[7] = test system: Clostridium perfringens; type: cell-based; conditions: disk 200 μg, anaerobic, 24-48 h
[8] = test system: Bacteroides fragilis; assay: Antimicrobial agar dilution test of anaerobic bacteria (MIC); type: cell-based; conditions: 48 h
[9] = test system: M. catarrhalis; assay: Microdilution antimicrobial susceptibility test (MIC); type: cell-based; conditions: Moraxella catarrhalis; broth microdilution, 18-24 h, MIC = 90% inhibition of growth; read-out: MIC M. catarrhalis MIC2
[10] = test system: E. coli; assay: Systemic bacterial infection model, mice infected with E. coli
[11] = test system: Peptostreptococcus sp; type: cell-based; conditions: Peptostreptococcus sp (fresh abdominal aspirate); disk 200 μg; anaerobic, 24-48 h
[12] = test system: E faecalis; assay: Microdilution antimicrobial susceptibility test (MIC); type: cell-based; conditions: broth microdilution, 18-24 h, MIC = 90% inhibition of growth; read-out: MIC E faecalis MIC2
[13] = test system: Clostridium sp.; type: cell-based; conditions: disk 200 μg, anaerobic, 24-48 h
[14] = test system: S aureus; assay: Microdilution antimicrobial susceptibility test (MIC); type: cell-based; conditions: broth microdilution, 18-24 h, MIC = 90% inhibition of growth; read-out: MIC S aureus MIC2
[15] = test system: S cerevisiae; assay: as above; type: cell-based; conditions: broth microdilution, 18-24 h, MIC = 90% inhibition of growth; read-out: MIC S cerevisiae MIC7
[16] = test system: E coli (ImpA); assay: as above; type: cell-based; conditions: broth microdilution, 18-24 h, MIC = 90% inhibition of growth; read-out: MIC E coli (ImpA) MIC9
Experimental: Microdilution Antimicrobial Susceptibility Test Assay
Stock solutions of tested compounds were prepared in N,N-dimethylformamide (DMF) at a concentration of 5 mg/mL. Working solutions of the tested compounds were then prepared from the stock solutions, in Mueller-Hinton broth (MHB) with a starting concentration of 64 μg/mL.
Bacterial inocula were prepared from overnight culture (i.e., one fresh colony from agar plate in 5 ml MHB; H. influenzae was grown in MHB with the addition of yeast extract, haematin, and NAD), centrifuged 2×5 min/3000 rpm (for S. pneumoniae and H. influenzae, 2×10 min/3000 rpm), and dispensed in 5 ml of fresh MHB each time, such that the bacterial suspension is diluted to obtain 100 colony forming units (cfu) in a microplate well (100 μl total volume).
Microplate wells were filled with two-fold dilutions of test compound (50 Al), starting with 64 μg/ml. Wells were then filled with 50 μl of bacterial inoculum (final volume: 100 μl/well). The plates were incubated at 37° C. for 18-24 hours (S. pneumoniae was grown in a CO2-enriched atmosphere).

[17] = test system: S pneumoniae; assay: as above; type: cell-based; conditions: broth microdilution, 18-24 h, CO2-enriched atmosphere, MIC = 90% inhibition of growth; read-out: MIC S pneumoniae MIC6

Cn1c(S)nnc1-c1ccc([N+](=O)[O-])o1 [Compound 122, 5-[2-(5-Nitro)furyl]-4-methyl-4H-1,2,4-triazole-3-thiol]
MIC [1]: 4 µg/mL (≈ 17.7 µM) | MIC Bacteroides thetaiotaomicron [2]: < 0.125 µg/mL | Survival (%) ([3]; Study #2, 25 mg/kg IP QD × 3, 6 days observation): 0% | Survival (%) ([3]; Study #2, 50 mg/kg IP QD × 3, 6 days observation): 30% | Survival (%) ([3]; Study #2, 75 mg/kg IP QD × 3, 6 days observation): 10% | Survival (%) ([3]; Study #2, 100 mg/kg IP QD × 3, 6 days observation): 0% | MIC [4]: 8 µg/mL (≈ 35.4 µM) | Inhibition zones [5]: 41 mm | MIC Bacteroides vulgatus [6]: < 0.125 µg/mL | Inhibition zones ([7]; Clostridium perfringens (fresh wound isolate)): 30 mm | Inhibition zones ([7]; Clostridium perfringens, diameter includes disk): 36 mm* | MIC Bacteroides fragilis ([8]; first B. fragilis column): < 0.125 µg/mL | MIC Bacteroides fragilis ([8]; second B. fragilis column): < 0.125 µg/mL | MIC Bacteroides fragilis ([8]; third B. fragilis column): < 0.125 µg/mL | MIC [9]: < 0.12 µg/mL | Survival (%) ([10]; Study #3, 25 mg/kg IP QD × 3, 6 days observation): 0% | Survival (%) ([10]; Study #3, 50 mg/kg IP QD × 3, 6 days observation): 60% | Survival (%) ([10]; Study #3, 75 mg/kg IP QD × 3, 6 days observation): 20% | Survival (%) ([10]; Study #3, 100 mg/kg IP QD × 3, 6 days observation): 0% | Inhibition zones [11]: 15 mm | MIC [12]: 2 µg/mL (≈ 8.84 µM) | Inhibition zones ([13]; Clostridium sp. (first listed strain)): 20 mm | Inhibition zones ([13]; Clostridium sp. (second listed strain)): 40 mm | MIC [14]: 2 µg/mL (≈ 8.84 µM) | MIC [15]: 32 µg/mL (≈ 141 µM) | MIC [16]: 0.25 µg/mL (≈ 1.11 µM) | MIC [17]: 4 µg/mL (≈ 17.7 µM)
